Results as given in patent US20240252488A1 (KOREA RESEARCH INSTITUTE OF CHEMICAL TECHNOLOGY, priority 2020, published 2024).

How the values were obtained:
MLKL [1] = molecular target: T1, MLKL (Homo sapiens, UniProt Q8NB16); experiment: Measurement of binding affinity with MLKL receptor (competitive binding assay, Kd); set-up: made in house; host or cells: HEK 293 cell line (T7 phage in E. coli BL21-derived host is also described)
T1 sequence (Q8NB16 1-471): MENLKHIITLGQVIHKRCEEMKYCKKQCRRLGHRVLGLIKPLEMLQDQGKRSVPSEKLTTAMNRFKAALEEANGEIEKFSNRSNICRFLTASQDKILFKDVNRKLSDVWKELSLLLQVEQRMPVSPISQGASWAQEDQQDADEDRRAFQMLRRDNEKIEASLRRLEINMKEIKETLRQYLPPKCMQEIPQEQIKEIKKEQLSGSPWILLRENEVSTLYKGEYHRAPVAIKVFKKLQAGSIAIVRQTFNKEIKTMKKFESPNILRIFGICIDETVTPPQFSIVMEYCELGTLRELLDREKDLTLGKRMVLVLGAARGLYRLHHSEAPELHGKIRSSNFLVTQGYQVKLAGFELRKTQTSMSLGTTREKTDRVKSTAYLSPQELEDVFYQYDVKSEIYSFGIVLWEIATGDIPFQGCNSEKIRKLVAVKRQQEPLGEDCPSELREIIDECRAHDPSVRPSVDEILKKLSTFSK
How it was run: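 Competition binding of kinase tagged with DNA for qPCR detection, expressed in HEK 293 cells, against immobilized ligand on beads. Final DMSO 0.9%. Kd derived from kinase amount in eluates measured by qPCR.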

MLKL [2] = molecular target: T1, MLKL; experiment: MLKL degradation assay in HepG2 cell line (western blot); format: cell-based; set-up: endogenous in cells; host or cells: HepG2 or HaCaT; conditions: cell line not given; for Degradation assay (Degradation %) 1 μM: compound 1 μM; for Degradation assay (Degradation %) 10 μM: compound 10 μM
How it was run: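 HepG2 cells were exposed to compound at a final 1 or 10 μM for 20-24 hours at 37 °C, 5% CO2. RIPA lysates were normalized by BCA assay, 10-15 μg protein resolved by SDS-PAGE, and MLKL levels detected by western blot with chemiluminescence.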

FADD−/− Jurkat cells = experiment: Necroptosis inhibition assay, TNF-α-induced necroptosis (CellTiter-Glo 2.0); format: cell-based, human; conditions: TNF-α 15 ng/mL; for Necroptosis inhibition assay (Rescue %) 1 μM: compound 1 μM; for Necroptosis inhibition assay (Rescue %) 10 μM: compound 10 μM
How it was run: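 Cells at 5.0×10^5 cells/mL were pretreated with compound (final 0.1, 1 and 10 μM) for 30 minutes at room temperature, then given TNF-α at 15 ng/mL final. After 20 to 24 hours at 37° C, 5% CO2, viability was read as ATP luminescence to calculate cytotoxicity and necroptosis inhibition rate.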

SMILES	Kd (MLKL [1])	Degradation assay (Degradation %) 1 μM (MLKL [2])	Degradation assay (Degradation %) 10 μM (MLKL [2])	Necroptosis inhibition assay (Rescue %) 1 μM (FADD−/− Jurkat cells)	Necroptosis inhibition assay (Rescue %) 10 μM (FADD−/− Jurkat cells)	Necroptosis inhibition assay (Rescue %) 1 μM (FADD−/− Jurkat cells; FADD−/− Jurkat cells)	Necroptosis inhibition assay (Rescue %) 10 μM (FADD−/− Jurkat cells; FADD−/− Jurkat cells)	Necroptosis inhibition assay (Rescue %) 1.1 μM (FADD−/− Jurkat cells; compound 1.1 µM)
Nc1ncc(-c2cnn(C3CCN(CCC4CCN(C(=O)CC5CCN(c6ccc7c(c6)C(=O)N(C6CCC(=O)NC6=O)C7=O)CC5)CC4)CC3)c2)nc1C(=O)O[C@@H](C(=O)Nc1ccc(F)cc1)c1ccccc1 (stereo partly drawn) [TDH-367, (R)-2-((4-fluorophenyl)amino)-2-oxo-1-phenylethyl 3-amino-6-(1-(1-(2-(1-(2-(1-(2-(2,6-dioxopiperidin-3-yl)-1,3-dioxoisoindolin-5-yl)piperidin-4-yl)acetyl)piperidin-4-yl)ethyl)piperidin-4-yl)-1H-pyrazol-4-yl)pyrazine-2-carboxylate]	0.82 nM	84.28%	80.64%	36.86%	21.34%			
Nc1ncc(-c2cnn(C3CCN(C4CC5(CCN(CC6CCN(C(=O)COc7ccc8c(c7)C(=O)N(C7CCC(=O)NC7=O)C8=O)CC6)CC5)C4)CC3)c2)nc1C(=O)O[C@@H](C(=O)Nc1ccc(F)cc1)c1ccccc1 (stereo partly drawn) [TDH-442, (R)-2-((4-fluorophenyl)amino)-2-oxo-1-phenylethyl 3-amino-6-(1-(1-(7-((1-(2-((2-(2,6-dioxopiperidin-3-yl)-1,3-dioxoisoindolin-5-yl)oxy)acetyl)piperidin-4-yl)methyl)-7-azaspiro[3.5]nonan-2-yl)piperidin-4-yl)-1H-pyrazol-4-yl)pyrazine-2-carboxylate]	0.53 nM	80.37%	87.27%			58.16%	21.7%	
Nc1ncc(-c2cnn(C3CCN(CCCN4CCN(C(=O)CNc5cccc6c5C(=O)N(C5CCC(=O)NC5=O)C6=O)CC4)CC3)c2)nc1C(=O)OC(C(=O)Nc1ccc(F)cc1)c1ccccc1 (stereo not shown) [TDH-241, 2-((4-fluorophenyl)amino)-2-oxo-1-phenylethyl 3-amino-6-(1-(1-(3-(4-((2-(2,6-dioxopiperidin-3-yl)-1,3-dioxoisoindolin-4-yl)glycyl)piperazin-1-yl)propyl)piperidin-4-yl)-1H-pyrazol-4-yl)pyrazine-2-carboxylate]	2.9 nM	64.55%	64.03%	50.09%	28.85%			
Nc1ncc(-c2ccc(N3CCN(CCOCCOCCNC(=O)COc4ccc5c(c4)C(=O)N(C4CCC(=O)NC4=O)C5=O)CC3)nc2)nc1C(=O)OC(C(=O)Nc1ccc(F)cc1)c1ccccc1 (stereo not shown) [TDH-262, 2-((4-fluorophenyl)amino)-2-oxo-1-phenylethyl 3-amino-6-(6-(4-(2-(2-(2-(2-((2-(2,6-dioxopiperidin-3-yl)-1,3-dioxoisoindolin-5-yl)oxy)acetamido)ethoxy)ethoxy)ethyl)piperazin-1-yl)pyridin-3-yl)pyrazine-2-carboxylate]	65 nM	58.43%	75.8%	22.59%	4.02%			
Nc1ncc(-c2cnn(C3CCN(C(=O)CCC4CCN(C(=O)CC5CCN(c6cccc7c6C(=O)N(C6CCC(=O)NC6=O)C7=O)CC5)CC4)CC3)c2)nc1C(=O)O[C@@H](C(=O)Nc1ccc(F)cc1)c1ccccc1 (stereo partly drawn) [TDH-429, (R)-2-((4-fluorophenyl)amino)-2-oxo-1-phenylethyl 3-amino-6-(1-(1-(3-(1-(2-(1-(2-(2,6-dioxopiperidin-3-yl)-1,3-dioxoisoindolin-4-yl)piperidin-4-yl)acetyl)piperidin-4-yl)propanoyl)piperidin-4-yl)-1H-pyrazol-4-yl)pyrazine-2-carboxylate]	2.3 nM	77.13%	63.72%			18.34%	11.03%	
Nc1ncc(-c2cnn(C3CCN(CCOCCNC(=O)C4CCN(c5cccc6c5C(=O)N(C5CCC(=O)NC5=O)C6=O)CC4)CC3)c2)nc1C(=O)O[C@@H](C(=O)Nc1ccc(F)cc1)c1ccccc1 (stereo partly drawn) [TDH-128, (R)-2-((4-fluorophenyl)amino)-2-oxo-1-phenylethyl 3-amino-6-(1-(1-(2-(2-(1-(2-(2,6-dioxopiperidin-3-yl)-1,3-dioxoisoindolin-4-yl)piperidine-4-carboxamido)ethoxy)ethyl)piperidin-4-yl)-1H-pyrazol-4-yl)pyrazine-2-carboxylate]	14 nM	11%	68.52%	26.22%	56.56%			
Nc1ncc(-c2cnn(C3CCN(C[C@H]4CC[C@H](CNC(=O)COc5ccc6c(c5)C(=O)N(C5CCC(=O)NC5=O)C6=O)CC4)CC3)c2)nc1C(=O)O[C@@H](C(=O)Nc1ccc(F)cc1)c1ccccc1 (stereo partly drawn) [TDH-346, (R)-2-((4-fluorophenyl)amino)-2-oxo-1-phenylethyl 3-amino-6-(1-(1-(((1r,4r)-4-((2-((2-(2,6-dioxopiperidin-3-yl)-1,3-dioxoisoindolin-5-yl)oxy)acetamido)methyl)cyclohexyl)methyl)piperidin-4-yl)-1H-pyrazol-4-yl)pyrazine-2-carboxylate]	1.2 nM	85.62%	81.91%	57.41%	24.57%			
Nc1ncc(-c2cnn(C3CCN(CCC4CCN(C(=O)C5CN(c6ccc7nnn(C8CCC(=O)NC8=O)c(=O)c7c6)C5)CC4)CC3)c2)nc1C(=O)O[C@@H](C(=O)Nc1ccc(F)cc1)c1ccccc1 (stereo partly drawn) [TDH-333, (R)-2-((4-fluorophenyl)amino)-2-oxo-1-phenylethyl 3-amino-6-(1-(1-(2-(1-(1-(3-(2,6-dioxopiperidin-3-yl)-4-oxo-3,4-dihydrobenzo[d][1,2,3]triazin-6-yl)azetidine-3-carbonyl)piperidin-4-yl)ethyl)piperidin-4-yl)-1H-pyrazol-4-yl)pyrazine-2-carboxylate]	4.1 nM	57.66%	71.32%		36.65%			58.92 (1.1µM) %
COc1ccc(C(=O)N2CCC(OCCN3CCC(CN4CCC(n5cc(-c6cnc(N)c(C(=O)O[C@@H](C(=O)Nc7ccc(F)cc7)c7ccccc7)n6)cn5)CC4)CC3)CC2)cc1N1CCC(=O)NC1=O [TDH-506, (R)-2-((4-fluorophenyl)amino)-2-oxo-1-phenylethyl 3-amino-6-(1-(1-((1-(2-((1-(3-(2,4-dioxotetrahydropyrimidin-1(2H)-yl)-4-methoxybenzoyl)piperidin-4-yl)oxy)ethyl)piperidin-4-yl)methyl)piperidin-4-yl)-1H-pyrazol-4-yl)pyrazine-2-carboxylate]	0.6 nM	88.53%	88.65%			75.45%	48.09%	
COc1ccc(C(=O)N2CCC(CN3CCC4(CC3)CC(N3CCC(n5cc(-c6cnc(N)c(C(=O)O[C@@H](C(=O)Nc7ccc(F)cc7)c7ccccc7)n6)cn5)CC3)C4)CC2)cc1N1CCC(=O)NC1=O [TDH-499, (R)-2-((4-fluorophenyl)amino)-2-oxo-1-phenylethyl 3-amino-6-(1-(1-(7-((1-(3-(2,4-dioxotetrahydropyrimidin-1(2H)-yl)-4-methoxybenzoyl)piperidin-4-yl)methyl)-7-azaspiro[3.5]nonan-2-yl)piperidin-4-yl)-1H-pyrazol-4-yl)pyrazine-2-carboxylate]	0.41 nM	90.60%	91.41%			45.83%	11.8%	
COc1ccc(C(=O)N2CCN(CCCN3CCC(n4cc(-c5cnc(N)c(C(=O)O[C@@H](C(=O)Nc6ccc(F)cc6)c6ccccc6)n5)cn4)CC3)CC2)cc1N1CCC(=O)NC1=O [TDH-447, (R)-2-((4-fluorophenyl)amino)-2-oxo-1-phenylethyl 3-amino-6-(1-(1-(3-(4-(3-(2,4-dioxotetrahydropyrimidin-1(2H)-yl)-4-methoxybenzoyl)piperazin-1-yl)propyl)piperidin-4-yl)-1H-pyrazol-4-yl)pyrazine-2-carboxylate]	0.17 nM	60.39%	14.41%			33.69%	14.38%	
